Assay results from patent US8173689B2 (Novartis AG, priority 2006, dated 2012).
Like-named read-outs stand apart in the source and are kept apart here.

Legend:
[1] = target: T1, cytoplasmic domain of the human CSF-1R (Homo sapiens, UniProt P07333); experiment: In vitro kinase assay for colony stimulating factor-1 receptor (AlphaScreen); format: biochemical; conditions: tested at about 1 μM, read-out: CSF-1R percent inhibition
T1 construct: Recombinant protein corresponding to the cytoplasmic domain of the human CSF-1R; purchased Invitrogen Corporation, Carlsbad, Calif; PV3249
T1 sequence (P07333 539-972 limits assumed): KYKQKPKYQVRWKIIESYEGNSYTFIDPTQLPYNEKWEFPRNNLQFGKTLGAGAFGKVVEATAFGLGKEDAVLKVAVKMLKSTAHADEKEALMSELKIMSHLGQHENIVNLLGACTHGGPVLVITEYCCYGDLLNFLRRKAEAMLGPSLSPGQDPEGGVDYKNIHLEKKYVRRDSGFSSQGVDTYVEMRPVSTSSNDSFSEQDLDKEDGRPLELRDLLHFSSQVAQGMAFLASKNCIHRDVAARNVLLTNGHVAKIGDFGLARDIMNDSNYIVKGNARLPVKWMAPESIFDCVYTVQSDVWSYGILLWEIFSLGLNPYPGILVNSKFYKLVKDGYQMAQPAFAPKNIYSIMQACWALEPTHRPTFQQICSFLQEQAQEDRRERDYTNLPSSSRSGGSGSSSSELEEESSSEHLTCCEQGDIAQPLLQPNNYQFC
Outline: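 Kinase reaction used 4 nM recombinant cytoplasmic domain at 1 μM ATP in 50 mM Hepes pH 7.5 with 5 mM MgCl2, 10 mM MnCl2, 0.1% BSA, 1.0 mM DTT and 0.01% Tween 80. Compounds were serially diluted 3-fold from 25 μM. Phosphopeptide was detected by AlphaScreen, PT66 anti-phosphotyrosine acceptor plus streptavidin donor beads, read after overnight incubation.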

[2] = target: T2, full-length human CSF-1R receptor (Homo sapiens, UniProt P07333); experiment: In vitro inhibition of CSF-1R receptor tyrosine phosphorylation in transfected HEK293H cells stimulated with MCSF; format: cell-based; conditions: HEK293-H, tested at about 1 μM, read-out: pCSF1R percent inhibition
T2 construct: transfected with the full-length human CSF-1R receptor cloned in house; expressed in transfected cells; host or cells: HEK293H (Invitrogen Cat. #11631017)
T2 sequence (P07333 20-972): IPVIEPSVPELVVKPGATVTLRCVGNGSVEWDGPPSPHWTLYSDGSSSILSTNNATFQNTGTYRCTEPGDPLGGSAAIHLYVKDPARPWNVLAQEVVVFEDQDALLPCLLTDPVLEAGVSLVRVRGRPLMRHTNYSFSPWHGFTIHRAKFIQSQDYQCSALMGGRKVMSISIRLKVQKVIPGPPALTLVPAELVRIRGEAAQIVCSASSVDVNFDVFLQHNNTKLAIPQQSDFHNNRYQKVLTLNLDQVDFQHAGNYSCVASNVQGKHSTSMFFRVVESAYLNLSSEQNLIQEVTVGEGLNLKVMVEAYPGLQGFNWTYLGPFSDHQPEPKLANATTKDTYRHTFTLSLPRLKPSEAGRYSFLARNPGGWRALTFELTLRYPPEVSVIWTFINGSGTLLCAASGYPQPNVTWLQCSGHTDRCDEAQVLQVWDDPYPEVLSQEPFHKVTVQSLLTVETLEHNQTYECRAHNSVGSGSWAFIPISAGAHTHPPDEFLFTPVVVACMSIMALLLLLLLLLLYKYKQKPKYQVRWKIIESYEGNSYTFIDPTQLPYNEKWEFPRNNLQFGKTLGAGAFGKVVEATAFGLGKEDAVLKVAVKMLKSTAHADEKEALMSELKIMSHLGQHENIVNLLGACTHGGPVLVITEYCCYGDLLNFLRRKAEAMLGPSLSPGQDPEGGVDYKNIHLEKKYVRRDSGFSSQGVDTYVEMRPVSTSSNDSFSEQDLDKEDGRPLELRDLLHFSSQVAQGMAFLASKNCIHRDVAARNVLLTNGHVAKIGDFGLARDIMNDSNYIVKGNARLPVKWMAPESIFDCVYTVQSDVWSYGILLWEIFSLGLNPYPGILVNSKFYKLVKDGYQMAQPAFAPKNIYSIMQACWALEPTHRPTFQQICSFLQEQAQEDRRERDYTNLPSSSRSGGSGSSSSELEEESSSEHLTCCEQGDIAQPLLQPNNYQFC
Experimental: The lysate was then transferred to total CSF-1R antibody coated 96-well plates that had already been blocked with 3% Blocker A from Mesoscale discovery (MSD) for 2 hours and washed afterwards. Lysates were incubated overnight at 4° C. and the plates were then washed 4× with MSD Tris Wash Buffer. […] The plates were read on the Sector 6000 instrument (MSD). Raw data was imported in Abase and EC50s calculated with XL-fit data analysis software.

kinase domain of cKIT = target: T3, kinase domain of cKIT (Homo sapiens, UniProt P10721); experiment: Inhibition of cKIT kinase signaling in an in vitro biochemical assay (alphascreen); conditions: tested at about 1 μM, read-out: cKit percent inhibition
T3 construct: The kinase domain of cKIT was assayed in 50 mM Hepes; purchased Upstate 14-559
T3 sequence (P10721 589-937 limits assumed): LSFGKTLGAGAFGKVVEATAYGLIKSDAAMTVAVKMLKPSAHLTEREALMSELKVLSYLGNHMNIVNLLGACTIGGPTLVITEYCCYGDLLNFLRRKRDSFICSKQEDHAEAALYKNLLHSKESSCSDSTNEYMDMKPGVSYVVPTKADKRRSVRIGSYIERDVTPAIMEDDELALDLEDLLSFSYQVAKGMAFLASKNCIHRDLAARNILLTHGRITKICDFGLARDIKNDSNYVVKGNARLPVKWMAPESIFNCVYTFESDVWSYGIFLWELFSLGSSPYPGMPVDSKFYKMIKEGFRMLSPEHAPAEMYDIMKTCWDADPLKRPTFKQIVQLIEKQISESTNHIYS

kinase domain of PDGFRβ = target: T4, kinase domain of PDGFRβ (Homo sapiens, UniProt P09619); experiment: Inhibition of PDGFRb kinase signaling in an in vitro biochemical assay (alphascreen); conditions: tested at about 1 μM, read-out: PDGFRβ percent inhibition
T4 construct: The kinase domain of PDGFRβ was assayed in 50 mM Hepes; purchased Invitrogen P3082
T4 sequence (P09619 600-962 limits assumed): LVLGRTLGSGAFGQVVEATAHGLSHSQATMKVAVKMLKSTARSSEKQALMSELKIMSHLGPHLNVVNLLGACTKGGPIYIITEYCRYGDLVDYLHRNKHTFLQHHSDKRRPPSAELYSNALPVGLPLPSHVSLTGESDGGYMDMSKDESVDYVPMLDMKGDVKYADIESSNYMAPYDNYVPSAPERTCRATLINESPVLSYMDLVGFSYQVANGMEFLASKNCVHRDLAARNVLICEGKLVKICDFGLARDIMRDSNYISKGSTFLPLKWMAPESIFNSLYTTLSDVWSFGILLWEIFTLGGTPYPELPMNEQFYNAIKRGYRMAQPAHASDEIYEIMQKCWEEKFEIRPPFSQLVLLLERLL

[3] = test system: MNFS60 (murine AML cells); experiment: Cell viability assay in MCSF dependent MNFS60 cells (Cell Titer Glo); format: cell-based; conditions: Mus musculus, tested at about 1 μM, read-out: M-NFS-60 CP percent inhibition
Outline: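 Viability was read by Cell Titer Glo after 72 hrs at 37° C., 5% CO2, with triplicate conditions. Compounds were titrated 3-fold into MNFS60 cultures whose final MCSF level was 10 ng/ml. EC50 values came from curve fitting.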

| Compound | inhibition at 1 µM [1] [%] | inhibition at 1 µM ([2]; HEK293H cells) [%] | inhibition at 1 µM (kinase domain of cKIT) [%] | inhibition at 1 µM (kinase domain of PDGFRβ) [%] | inhibition at 1 µM ([3]; MNFS60 cells) [%] | inhibition at 1 µM ([3]; MCSF dependent MNFS60 cells) [%] | further results |
| --- | --- | --- | --- | --- | --- | --- | --- |
| CNC(=O)c1cc(Oc2ccc3nc(NCc4ccccc4OC)sc3c2)ccn1 [Compound 132, 4-[2-(2-Methoxy-benzylamino)-benzothiazol-6-yloxy]-pyridine-2-carboxylic acid methylamide] | 99 | 98 | 98 | 58 | 100 |  |  |
| CNC(=O)c1cc(Oc2ccc3nc(N[C@@H]4CCc5ccccc5C4)sc3c2)ccn1 [Example 329, (R)-N-methyl-4-(2-(1,2,3,4-tetrahydronaphthalen-2-ylamino)benzo[d]thiazol-6-yloxy)picolinamide] | 100 | 92 | 59 | 17 |  | 84 |  |
| CNC(=O)c1cc(Oc2ccc3nc(N[C@@H]4CCCC[C@H]4O)sc3c2Cl)ccn1 [Example 378, 4-(7-chloro-2-((1R,2R)-2-hydroxycyclohexylamino)benzo[d]thiazol-6-yloxy)-N-methylpicolinamide] | 100 | 87 | 62 | 43 |  | 90 |  |
| CNC(=O)c1cc(Oc2ccc3nc(N[C@H]4CCCN(S(C)(=O)=O)C4)sc3c2)ccn1 [Example 331, (S)-N-methyl-4-(2-(1-(methylsulfonyl)piperidin-3-ylamino)benzo[d]thiazol-6-yloxy)picolinamide] | 100 | 79 | 41 | 10 |  | 68 |  |
| CC(C)(C)[C@@H](CO)Nc1nc2ccc(Oc3ccnc4ccccc34)cc2s1 [Example 248, (S)-3,3-dimethyl-2-(6-(quinolin-4-yloxy)benzo[d]thiazol-2-ylamino)butan-1-ol] |  |  |  |  |  |  | inhibition at 1 µM ([1]; compounds of Table 3): 100%; inhibition at 1 µM ([2]; compounds of Table 3): 39%; inhibition at 1 µM (kinase domain of cKIT; compounds of Table 3): 33%; inhibition at 1 µM (kinase domain of PDGFRβ; compounds of Table 3): 41%; inhibition at 1 µM ([3]; compounds of Table 3): 51% |
| CNC(=O)c1cc(Oc2ccc3nc(N[C@H]4CCCC[C@@H]4O)oc3c2)ccn1 [Compound 52, 4-[2-((1S,2S)-2-Hydroxy-cyclohexylamino)-benzooxazol-6-yloxy]-pyridine-2-carboxylic acid methylamide] | 100 | 71 | 12 | 50 | 56 |  |  |
| CNC(=O)c1cc(Oc2ccc3nc(Nc4ccccc4CCN4CCCCC4)oc3c2)ccn1 [Compound 44, 4-{2-[2-(2-Piperidin-1-yl-ethyl)-phenylamino]-benzooxazol-6-yloxy}-pyridine-2-carboxylic acid methylamide] | 37 |  |  | 15 |  |  | inhibition at 1 µM ([1]; compounds of Table 3): 100%; inhibition at 1 µM ([1]; compounds of Table 4): 100%; inhibition at 1 µM ([2]; compounds of Table 3): 99%; inhibition at 1 µM ([2]; compounds of Table 4): 53%; inhibition at 1 µM (kinase domain of cKIT; compounds of Table 3): 87%; inhibition at 1 µM (kinase domain of cKIT; compounds of Table 4): 45%; inhibition at 1 µM (kinase domain of PDGFRβ; compounds of Table 3): 98%; inhibition at 1 µM (kinase domain of PDGFRβ; compounds of Table 4): 24%; inhibition at 1 µM ([3]; compounds of Table 3): 100%; inhibition at 1 µM ([3]; compounds of Table 4): 94% |
| CNC(=O)c1cc(Oc2ccc3nc(NCc4cccc(F)c4F)sc3c2)ccn1 [Compound 147, 4-[2-(2,3-Difluoro-benzylamino)-benzothiazol-6-yloxy]-pyridine-2-carboxylic acid methylamide] | 98 | 97 | 90 | 0 | 90 |  |  |
| CCCn1cc(-c2cc(Oc3ccc4nc(N[C@@H]5CCCC[C@H]5O)sc4c3)ccn2)cn1 [Example 281, (1R,2R)-2-(6-(2-(1-propyl-1H-pyrazol-4-yl)pyridin-4-yloxy)benzo[d]thiazol-2-ylamino)cyclohexanol] |  |  |  |  |  |  | inhibition at 1 µM ([1]; compounds of Table 3): 100%; inhibition at 1 µM ([2]; compounds of Table 3): 96%; inhibition at 1 µM (kinase domain of cKIT; compounds of Table 3): 22%; inhibition at 1 µM (kinase domain of PDGFRβ; compounds of Table 3): 36%; inhibition at 1 µM ([3]; compounds of Table 3): 100% |
| CNC(=O)c1cc(Oc2ccc3nc(NCc4ccccc4C(F)(F)F)oc3c2)ccn1 [Compound 97, 4-[2-(2-Trifluoromethyl-benzylamino)-benzooxazol-6-yloxy]-pyridine-2-carboxylic acid methylamide] | 99 | 84 | 99 | 5 | 67 |  |  |
| C[C@H](Nc1nc2ccc(Oc3ccnc(-c4cnn(C)c4)c3)cc2s1)C1CCCCC1 [Cmpd 163, (S)-N-(1-cyclohexylethyl)-6-(2-(1-methyl-1H-pyrazol-4-yl)pyridin-4-yloxy)benzo[d]thiazol-2-amine] |  |  |  |  |  |  | inhibition at 1 µM ([1]; compounds of Table 3): 100%; inhibition at 1 µM ([2]; compounds of Table 3): 99%; inhibition at 1 µM (kinase domain of cKIT; compounds of Table 3): 32%; inhibition at 1 µM (kinase domain of PDGFRβ; compounds of Table 3): 39%; inhibition at 1 µM ([3]; compounds of Table 3): 100% |
| CNC(=O)c1cc(Oc2ccc3nc(NCc4cccc(Cl)c4Cl)oc3c2)ccn1 [Compound 77, 4-[2-(2,3-Dichloro-benzylamino)-benzooxazol-6-yloxy]-pyridine-2-carboxylic acid methylamide] | 100 | 94 | 92 | 15 | 79 |  |  |
| CNC(=O)c1cc(Oc2ccc3nc(N[C@H]4CCCC[C@@H]4NS(C)(=O)=O)sc3c2)ccn1 [Example 330, N-mehtyl-4-(2-((1S,2S)-2-(methylsulfonamido)cyclo-hexylamino)benzo[d]thiazol-6-yloxy)picolinamide] | 99 | 50 | 41 | 8 |  | 58 |  |
| CCNc1cc(Oc2ccc3nc(NCC4CCCCC4)sc3c2)ccn1 [Example 339, N-(cyclohexylmethyl)-6-(2-(ethylamino)pyridin-4-yloxy)benzo[d]thiazol-2-amine] | 100 | 84 | 66 | 69 |  | 66 |  |
| CNC(=O)c1cc(Oc2ccc3nc(NCc4cccc(Cl)c4Cl)sc3c2)ccn1 [Compound 134, 4-[2-(2,3-Dichloro-benzylamino)-benzothiazol-6-yloxy]-pyridine-2-carboxylic acid methylamide] | 98 | 93 | 98 | 0 | 93 |  |  |
| c1ccc2c(Oc3ccc4nc(NC5CCCCC5)sc4c3)ccnc2c1 [Example 256, N-cyclohexyl-6-(quinolin-4-yloxy)benzo[d]thiazol-2-amine] |  |  |  |  |  |  | inhibition at 1 µM ([1]; compounds of Table 3): 100%; inhibition at 1 µM ([2]; compounds of Table 3): 87%; inhibition at 1 µM (kinase domain of cKIT; compounds of Table 3): 71%; inhibition at 1 µM (kinase domain of PDGFRβ; compounds of Table 3): 3%; inhibition at 1 µM ([3]; compounds of Table 3): 87% |
| Cc1cnc(-c2cc(Oc3ccc4nc(NCC5CCCCC5)oc4c3)ccn2)[nH]1 [Compound 109, Cyclohexylmethyl-{6-[2-(5-methyl-1H-imidazol-2-yl)-pyridin-4-yloxy]-benzooxazol-2-yl}-amine] | 100 | 90 | 53 | 75 | 81 |  |  |
| CNC(=O)c1cc(Oc2ccc3nc(N[C@H]4CCCN(S(=O)(=O)C5CC5)C4)sc3c2)ccn1 [Example 367, (S)-4-(2-(1-(cyclopropylsulfonyl)piperidin-3-ylamino)benzo[d]thiazol-6-yloxy)-N-methylpicolinamide] | 100 | 89 | 13 | 7 |  | 81 |  |
